Measurements reported in patent US5444070A, “Phenyl substituted heterocyclic compounds” (NeuroSearch A/S, priority 1992, dated 1995).

Legend:
[1] = system: reuptake of dopamine in synaptosomes of rat forebrain; test: inhibition of dopamine reuptake in synaptosomes of rat forebrain; assay type: biochemical; details: 3H-dopamine 1×10^-9 M, 10 min at 37° C., male Wistar rat forebrain synaptosomes; read-out: Dopamine reuptake inhibiting activity (IC50)
Protocol: Fresh whole forebrain (at 0°-4° C.) from male Wistar rats (150-200 g) is homogenized in a glass homogenizer with a teflon pestle in 20×volumes 0.32M sucrose. The homogenate is centrifuged at 1000×g (~2900 rpm) for 10 min. The pellet is discarded and the supernatant is used for uptake assays.
A Krebs Buffer (119 mM NaCl, 24 mM NaHCO3, 2.1 mM KCl, 1.2 mM KH2 PO4, 1.8 mM CaCl2, 2 mM MgSO4,7H2 O, 12 mM glucose) is equilibrated with an atmosphere of 96% O2 : 4% CO2 for at least 60 min at 37° C. To 5 ml Krebs-buffer 100 μl of the radioactivity is added (3H-dopamine 1×10^-9 M final concentration) and 100 μl test substance solution and 200 μl of tissue suspension. The samples are thoroughly mixed and incubated 10 min at 37° C. followed by 2 min at 0° C. After incubation the samples are poured directly onto Whatman GF/C glass fibre filters under suction and immediately washed with 2×5 ml ice-cold 0.9% saline (NaCl) buffer. To the filter is added 3 ml of scintillation fluid, and the amount of radioactivity on the filters is determined by conventional liquid scintillation counting.

[2] = system: abnormal stereotyped behaviour; test: abnormal stereotyped behaviour; assay type: in vivo, rat; details: at every relevant dosing level tested
Text: Backward locomotion may occasionally be observed.
+=only stereotyped sniffing
++=stereotyped sniffing and episodic licking
+++=Continuous licking and/or biting gnawing

SMILES: CN1[C@H]2CC[C@@H]1[C@H](c1nc(-c3ccccc3)no1)[C@@H](c1ccc3ccccc3c1)C2 [(1R,2R,3S)-2-(3-phenyl-1,2,4-oxadiazol-5-yl)-3-(2-naphthyl)-tropane]
- IC50 [1]: 540 nM

SMILES: CN1[C@H]2CC[C@@H]1[C@H](c1nc(-c3ccccc3)no1)[C@@H](c1ccc(Cl)cc1)C2 [(1R,2R,3S)-2-(3-phenyl-1,2,4-oxadiazol-5-yl)-3-(4-chlorophenyl)-tropane]
- IC50 [1]: 330 nM

SMILES: Cc1ccc([C@H]2C[C@@H]3CC[C@H]([C@@H]2c2nc(-c4ccccc4)no2)N3C)cc1 [(1R,2R,3S)-2-(3-phenyl-1,2,4-oxadiazol-5-yl)-3-(4-methylphenyl)-tropane]
- IC50 [1]: 960 nM

SMILES: COC(=O)[C@@H]1[C@@H](c2ccc(F)cc2)C[C@@H]2CC[C@H]1N2C [trans isomer of Win 35,428, (1R,2R,3S)-2-carbomethoxy-3-(4-fluorophenyl)tropane, reference compound]
- side effects: abnormal stereotyped behaviour [2]: essentially or totally devoid of side effects
